Data reported in US12365674B2, “Inhibitors of histone deacetylase useful for the treatment or prevention of HIV infection” (Merck Sharp & Dohme LLC, priority 2019, dated 2025).

Tests used:
Type in all cases: biochemical
[1] = molecular target: T1, human HDAC2 (Homo sapiens, UniProt Q92769); assay: Human HDAC enzyme inhibitor Fluor-de-Lys assay, HDAC2; conditions: 1.5 nM enzyme, 40 μM substrate BML-KI104, 3 h pre-incubation, 60 min reaction; read-out: HDAC2_IC50
T1 construct: Full length human HDAC2-FLAG was expressed in baculovirus infected Sf9 cells; host or cells: baculovirus infected Sf9 cells
Source text: (§1) Recombinant human HDAC8 (catalog number BML-SE145-0100) and HDAC10 (catalog number BML-SE559-0050) enzymes, HDAC substrates BML-KI104 and BML-KI178, and HDAC developer solutions BML-KI105 and BML-KI176 were purchased from Enzo Life Sciences (Farmingdale, NY). Recombinant human HDAC5 and HDAC11 were purchased from BPS Bioscience (San Diego, CA)(catalog numbers 50045 and 50021). Substrate Boc-Lys(TFA)-AMC was obtained from Bachem (Bupendorf, Switzerland) (catalog number 1-1985). HDAC inhibitor suberoylanilide hydroxamic acid (SAHA) was obtained from Indofine (Hillsborough Township, NJ) and trichostatin A (TSA) was obtained from Sigma-Aldrich (St. Louis, MO). […] HEPES pH 8.0 was obtained from Boston BioProducts (Ashland, MA), Tween-20 from Fisher Scientific (Hampton, NH)(catalog number BP337), TCEP from Calbiochem and 7.5% bovine serum albumin (BSA) from Life Technologies (Carlsbad, CA) (catalog number 15260037). 384-well, black assay plates were obtained from Corning (Corning, NY) (catalog number 3575).
(§2) Recombinant human HDAC1, HDAC2, and HDAC3/SMRT heterodimer were prepared by Merck Research Laboratories. […] The eluted protein was then passed over an anti-HDAC1 immunoaffinity column to remove any complexes containing HDAC1. […]
(§3) The histone deacetylase activities of HDAC1, HDAC2, HDAC3, HDAC6, and HDAC8 were measured in modified Fluor-de-Lys assays in 384-well format. In this assay, HDAC enzymes are initially incubated with an ε-acetyl (or -trifluoroacetyl)-L-lysine-containing substrate with a C-terminal amide having aminomethylcoumarin as the amine component. HDACs cleave the ε-acetyl group, rendering the resulting product susceptible to AMC cleavage by trypsin. The released AMC is then detected by its fluorescence.
(§4) The HDAC 1, 2 assays employed buffer A, which contained 20 mM HEPES, pH 8.0, 1 mM MgCl2, 137 mM NaCl, 2.7 mM KCl, 0.05% BSA. The HDAC3/SMRT assay employed buffer B, consisting of 20 mM HEPES, pH 8.0, 1 mM MgCl2, 50 mM NaCl, 2.7 mM KCl, 0.05% BSA, 0.005% Tween 20, and 10 μM IP4. The HDAC6 assay employed buffer C, consisting of 20 mM HEPES, pH 8.0, 1 mM MgCl2, 137 mM NaCl, 2.7 mM KCl, 0.5 mM TCEP (Calbiochem) and 0.05% BSA. The HDAC8 assay employed buffer D, consisting of 20 mM HEPES, pH 8.0, 1 mM MgCl2, 100 mM NaCl, 20 mM KCl, 0.1% n-octyl-β-D-glucoside (Anatrace, Maumee, OH) and 0.05% BSA. All steps were performed at room temperature (23° C.). The assay was performed by pre-incubating serial dilutions of test compounds with the target HDAC prior to initiation with substrate. Each compound was titrated in a 10-point dose response, using a 1:3 fold dilution scheme, with 0.15 ul of solution added by ECHO555 to the plate, followed by the addition of 20 μl of the appropriate HDAC isoform diluted in appropriate assay buffer. […] Final conditions used for each assay were: 1. HDAC 1, 0.3 nM total enzyme, 20 μM substrate BML-K1104; 2. HDAC 2, 1.5 nM total enzyme, 40 μM substrate BML-K1104; 3. HDAC 3/SMRT, 0.3 nM total enzyme, 20 μM substrate BML-K1104; 4. HDAC 6, 1.3 nM total enzyme, 2.5 μM substrate BML-K1104; 5. HDAC 8, 1.3 nM total enzyme, 200 μM substrate BML-K1178; the final high dose of test compound was 30 μM. […] The reactions were stopped and developed by addition of 30 ul of HDAC developer solution containing a saturating level of HDAC inhibitor as follows: 1.

[2] = molecular target: T2, human HDAC3/SMRT heterodimer (Homo sapiens, UniProt O15379); assay: Human HDAC enzyme inhibitor Fluor-de-Lys assay, HDAC3/SMRT; conditions: HDAC3/SMRT 0.3 nM enzyme, 20 μM substrate BML-KI104, 10 μM IP4, 3 h pre-incubation, 60 min reaction; read-out: HDAC3_IC50
T2 construct: Full length human HDAC3-FLAG was expressed in HEK-293F cells along with SMRT; host or cells: HEK-293F cells
Source text: as §1, §2, §3, §4

[3] = molecular target: T3, HDAC6 (Homo sapiens, UniProt Q9UBN7); assay: Human HDAC enzyme inhibitor Fluor-de-Lys assay, HDAC6; conditions: 1.3 nM enzyme, 2.5 μM substrate BML-KI104, 3 h pre-incubation, 60 min reaction; read-out: HDAC6_IC50
T3 sequence (Q9UBN7 1-1215): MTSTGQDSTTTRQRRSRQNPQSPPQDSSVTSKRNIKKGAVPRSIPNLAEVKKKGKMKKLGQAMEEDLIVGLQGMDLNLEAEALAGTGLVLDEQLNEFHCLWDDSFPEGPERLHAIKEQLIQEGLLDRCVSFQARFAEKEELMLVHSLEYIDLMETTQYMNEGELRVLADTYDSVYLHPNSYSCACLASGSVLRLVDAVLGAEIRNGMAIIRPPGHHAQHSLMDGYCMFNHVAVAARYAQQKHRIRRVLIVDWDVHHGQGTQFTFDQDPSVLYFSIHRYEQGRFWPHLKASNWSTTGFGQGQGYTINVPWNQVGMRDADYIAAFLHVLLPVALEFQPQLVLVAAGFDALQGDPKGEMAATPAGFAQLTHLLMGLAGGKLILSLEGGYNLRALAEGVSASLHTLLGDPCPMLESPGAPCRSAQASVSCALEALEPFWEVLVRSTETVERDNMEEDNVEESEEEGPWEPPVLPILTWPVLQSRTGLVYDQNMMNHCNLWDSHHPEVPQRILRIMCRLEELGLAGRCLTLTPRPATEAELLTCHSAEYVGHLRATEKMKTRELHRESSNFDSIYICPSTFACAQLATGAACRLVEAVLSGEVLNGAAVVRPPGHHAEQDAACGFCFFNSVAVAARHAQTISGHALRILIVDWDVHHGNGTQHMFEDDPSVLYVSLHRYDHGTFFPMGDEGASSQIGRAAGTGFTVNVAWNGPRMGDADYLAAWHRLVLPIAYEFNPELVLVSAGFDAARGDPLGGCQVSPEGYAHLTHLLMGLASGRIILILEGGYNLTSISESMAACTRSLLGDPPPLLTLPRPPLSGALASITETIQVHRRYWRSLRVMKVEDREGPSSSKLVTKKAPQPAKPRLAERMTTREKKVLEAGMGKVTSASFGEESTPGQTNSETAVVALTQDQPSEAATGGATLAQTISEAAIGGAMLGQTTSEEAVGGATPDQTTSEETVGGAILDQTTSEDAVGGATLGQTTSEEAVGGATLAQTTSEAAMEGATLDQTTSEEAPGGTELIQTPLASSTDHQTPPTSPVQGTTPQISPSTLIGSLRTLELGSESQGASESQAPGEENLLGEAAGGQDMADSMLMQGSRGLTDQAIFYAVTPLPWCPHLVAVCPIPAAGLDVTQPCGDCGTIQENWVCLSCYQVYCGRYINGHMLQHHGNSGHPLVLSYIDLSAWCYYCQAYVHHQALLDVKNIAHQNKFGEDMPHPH
Source text: as §1, §3
(§5) The HDAC 1, 2 assays employed buffer A, which contained 20 mM HEPES, pH 8.0, 1 mM MgCl2, 137 mM NaCl, 2.7 mM KCl, 0.05% BSA. The HDAC3/SMRT assay employed buffer B, consisting of 20 mM HEPES, pH 8.0, 1 mM MgCl2, 50 mM NaCl, 2.7 mM KCl, 0.05% BSA, 0.005% Tween 20, and 10 μM IP4. The HDAC6 assay employed buffer C, consisting of 20 mM HEPES, pH 8.0, 1 mM MgCl2, 137 mM NaCl, 2.7 mM KCl, 0.5 mM TCEP (Calbiochem) and 0.05% BSA. The HDAC8 assay employed buffer D, consisting of 20 mM HEPES, pH 8.0, 1 mM MgCl2, 100 mM NaCl, 20 mM KCl, 0.1% n-octyl-β-D-glucoside (Anatrace, Maumee, OH) and 0.05% BSA. All steps were performed at room temperature (23° C.). The assay was performed by pre-incubating serial dilutions of test compounds with the target HDAC prior to initiation with substrate. Each compound was titrated in a 10-point dose response, using a 1:3 fold dilution scheme, with 0.15 ul of solution added by ECHO555 to the plate, followed by the addition of 20 μl of the appropriate HDAC isoform diluted in appropriate assay buffer. […] Final conditions used for each assay were: 1. HDAC 1, 0.3 nM total enzyme, 20 μM substrate BML-K1104; 2. HDAC 2, 1.5 nM total enzyme, 40 μM substrate BML-K1104; 3. HDAC 3/SMRT, 0.3 nM total enzyme, 20 μM substrate BML-K1104; 4. HDAC 6, 1.3 nM total enzyme, 2.5 μM substrate BML-K1104; 5. HDAC 8, 1.3 nM total enzyme, 200 μM substrate BML-K1178; the final high dose of test compound was 30 μM. For potent compounds, 900 nM was used as the final high dose. The reactions were stopped and developed by addition of 30 ul of HDAC developer solution containing a saturating level of HDAC inhibitor as follows: 1.

[4] = molecular target: T4, human HDAC8 (Homo sapiens, UniProt Q9BY41); assay: Human HDAC enzyme inhibitor Fluor-de-Lys assay, HDAC8; conditions: 1.3 nM enzyme, 200 μM substrate BML-KI178, 3 h pre-incubation, 60 min reaction; read-out: HDAC8_IC50
T4 construct: purchased Enzo Life Sciences BML-SE145-0100
T4 sequence (Q9BY41 1-377): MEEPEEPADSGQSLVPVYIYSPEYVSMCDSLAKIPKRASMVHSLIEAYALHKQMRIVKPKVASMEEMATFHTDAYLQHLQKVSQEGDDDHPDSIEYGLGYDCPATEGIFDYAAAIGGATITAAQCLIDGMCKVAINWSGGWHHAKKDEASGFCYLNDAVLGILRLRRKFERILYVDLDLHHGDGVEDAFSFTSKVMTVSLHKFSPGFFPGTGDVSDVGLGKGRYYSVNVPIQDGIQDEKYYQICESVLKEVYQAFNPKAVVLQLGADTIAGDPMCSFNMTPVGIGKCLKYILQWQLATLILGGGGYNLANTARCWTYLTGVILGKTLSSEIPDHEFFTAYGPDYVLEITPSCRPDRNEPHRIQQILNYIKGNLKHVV
Source text: as §1, §3, §5

T2 sequence (O15379 whole entry): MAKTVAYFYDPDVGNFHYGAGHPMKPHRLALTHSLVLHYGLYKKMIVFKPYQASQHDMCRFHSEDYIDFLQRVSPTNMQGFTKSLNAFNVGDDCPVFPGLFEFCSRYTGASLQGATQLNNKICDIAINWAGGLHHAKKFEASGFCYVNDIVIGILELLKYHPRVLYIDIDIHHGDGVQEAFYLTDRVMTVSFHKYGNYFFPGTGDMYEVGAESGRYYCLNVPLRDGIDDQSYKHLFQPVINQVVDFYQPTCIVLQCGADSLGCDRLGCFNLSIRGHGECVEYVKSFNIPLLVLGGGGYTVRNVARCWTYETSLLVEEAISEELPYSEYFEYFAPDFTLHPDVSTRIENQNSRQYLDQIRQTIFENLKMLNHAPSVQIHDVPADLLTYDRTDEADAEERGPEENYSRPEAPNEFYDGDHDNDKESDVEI
T2 sequence (Q9Y618 1-899 partner limits assumed): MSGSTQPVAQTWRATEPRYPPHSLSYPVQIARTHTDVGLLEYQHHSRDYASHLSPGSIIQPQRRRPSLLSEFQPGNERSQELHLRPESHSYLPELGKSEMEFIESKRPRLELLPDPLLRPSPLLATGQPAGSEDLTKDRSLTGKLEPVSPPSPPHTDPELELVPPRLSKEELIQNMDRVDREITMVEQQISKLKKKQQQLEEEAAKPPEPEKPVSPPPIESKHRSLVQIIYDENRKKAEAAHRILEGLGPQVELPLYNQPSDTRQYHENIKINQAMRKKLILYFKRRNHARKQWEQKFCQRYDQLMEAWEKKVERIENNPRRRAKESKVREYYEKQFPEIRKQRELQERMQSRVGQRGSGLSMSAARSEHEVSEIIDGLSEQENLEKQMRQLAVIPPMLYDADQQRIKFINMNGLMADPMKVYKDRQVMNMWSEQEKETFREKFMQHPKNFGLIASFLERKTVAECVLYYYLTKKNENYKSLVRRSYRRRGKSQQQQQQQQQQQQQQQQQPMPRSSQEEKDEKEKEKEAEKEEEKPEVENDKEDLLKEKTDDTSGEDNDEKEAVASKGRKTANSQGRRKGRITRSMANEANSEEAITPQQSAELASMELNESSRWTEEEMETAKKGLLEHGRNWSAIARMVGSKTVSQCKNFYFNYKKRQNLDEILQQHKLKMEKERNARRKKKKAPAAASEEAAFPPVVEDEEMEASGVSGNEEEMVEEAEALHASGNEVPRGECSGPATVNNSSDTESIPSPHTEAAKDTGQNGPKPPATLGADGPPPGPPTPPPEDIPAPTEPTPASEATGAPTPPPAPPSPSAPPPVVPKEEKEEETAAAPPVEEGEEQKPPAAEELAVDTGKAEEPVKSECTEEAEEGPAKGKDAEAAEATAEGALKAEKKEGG
T1 sequence (Q92769 whole entry): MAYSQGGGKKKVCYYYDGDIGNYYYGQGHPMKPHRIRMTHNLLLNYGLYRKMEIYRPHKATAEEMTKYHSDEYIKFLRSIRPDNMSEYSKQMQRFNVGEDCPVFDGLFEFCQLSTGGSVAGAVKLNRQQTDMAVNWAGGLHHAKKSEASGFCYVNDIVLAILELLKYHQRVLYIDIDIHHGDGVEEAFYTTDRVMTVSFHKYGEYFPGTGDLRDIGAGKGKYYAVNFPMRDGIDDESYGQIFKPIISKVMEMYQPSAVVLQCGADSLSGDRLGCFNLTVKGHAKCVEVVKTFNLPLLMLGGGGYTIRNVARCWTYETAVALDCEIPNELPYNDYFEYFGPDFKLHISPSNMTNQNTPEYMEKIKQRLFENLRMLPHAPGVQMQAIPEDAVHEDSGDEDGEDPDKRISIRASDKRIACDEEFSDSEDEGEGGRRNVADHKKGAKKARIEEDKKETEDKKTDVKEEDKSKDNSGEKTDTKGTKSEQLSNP

Row | SMILES | IC50 [1] [µM] | IC50 [2] [µM] | IC50 [3] [µM] | IC50 [4] [µM]
1 | CCC(=O)CCCOC[C@H](NC(=O)C1CN(C)C1)c1ncc(-c2cc3ccccc3nc2OC)[nH]1 [Compound 3, (R)—N-(1-(5-(2-methoxyquinolin-3-yl)-1H-imidazol-2-yl)-2-((4-oxohexyl)oxy)ethyl)-1-methylazetidine-3-carboxamide] | 4.35 | 0.298 | – | –
2 | CCC(=O)CCCOC[C@H](NC(=O)[C@H]1CC12CCN(C)CC2)c1ncc(-c2cc3ccccc3nc2OC)[nH]1 [Compound 4, (S)—N—((R)-1-(5-(2-methoxyquinolin-3-yl)-1H-imidazol-2-yl)-2-((4-oxohexyl)oxy)ethyl)-6-methyl-6-azaspiro[2.5]octane-1-carboxamide] | – | – | 23.3 | > 45
